Source: patent US5350748A, “3-thio or amino substituted-benzo[b]thiophene-2-carboxamides and 3-oxygen, thio, or amino substituted-benzofuran-2-carboxamides as inhibitors of cell adhesion” (Warner-Lambert Company, priority 1993, dated 1994)

Test system: human neutrophil adhesion to TNF-α-stimulated human umbilical vein endothelial cells (HUVEC)
Experiment: Modified method: inhibition of human neutrophil adhesion to TNF-α-stimulated human umbilical vein endothelial cells (calcein-labeled neutrophils)
Type: cell-based
Details: 33 μM, neutrophils labeled with calcein, read-out: Adhesion ECA, % inhibition
Procedure: The 3-thiol, thioether, amino, alkylamino, or arylamino-benzo[b]thiophene-2-carboxamides and 3-alkoxy, aryloxy, thiol, thioether, amino, alkylamino, or arylamino-benzofuran-2-carboxamides have been shown in an in vitro assay to prevent the adhesion of neutrophils to human umbilical vein endothelial cells (HUVECS) stimulated with TNF-α. In this assay, HUVECS are stimulated with TNF-α for 4 hours, after which the cells are assayed for their ability to adhere to human neutrophils labeled with either ^51 Cr or calcein, a fluorescent dye. The details of this assay are described in the DETAILED DESCRIPTION.
Neutrophils were isolated from anticoagulant-treated venous blood obtained from healthy human volunteers according to the method of Ferrante and Thong [J. Immunol. Methods 24, 389-93 (1978)]. The cell preparations consisted of greater than 98% neutrophils.
Modified Method for Determining the Inhibition of Human Neutrophil Adhesion to TNF-α, IL-1α, and LPS Stimulated Human Umbilical Vein Endothelial Cells
The previous assay using ^51 Cr labeled human neutrophils has been modified. The neutrophils are now labeled with the fluorescent dye calcein. The current method allows for quantification of neutrophil adherence by fluorescence spectroscopy.
Second passage HUVEC (Clonetics Corporation, San Diego, Calif., CC-2617) were seeded into Coring (Corning glass works, Corning, N.Y.) 96-well cell culture plates at approximately 5×10^3 cells/well and grown to confluency in supplemented endothelial basal medium (EBM, MCDB-131, Clonetics, 10 ng/mL EGF, 1 μg/mL hydrocortisone, 0.4% bovine brain extract, 5% Fetal Bovine Serum). One day prior to running the assay, typically 3 days postseeding, the cultures were refed with 0.2 mL/well supplemented EBM (S-EBM).
Test compounds were prepared as 10 mL stock solutions at a concentration of 1.0 mM. The compounds were initially solubilized in 0.1 mL DMSO followed by the addition of 9.9 mL S-EBM. The drug preparations were then diluted in one step to a concentration of 66.6 μM or 200 μM. Solubilizations and dilutions were performed in polystyrene containers.
Recombinant human tumor necrosis factor-α (TNF, Genzyme, Boston, Mass., code TNF-H) was prepared at 400 U/mL in S-EBM. Stock TNF was prepared to 20,000 U/mL in Delbecco's phosphate-buffered saline (PBS, Gibco, Grand Island N.Y.) plus 0.1% BSA and stored at -70° C. HUVEC were washed one time with 0.2 mL warm unsupplemented EBM and then stimulated for 4hours at 37° C. with 200 U/mL TNF in the presence of 33.3 μM or 100 μM test compound. This was accomplished by adding 0.1 mL of 400 U/mL TNF and 0.1 mL 66.6 μM or 0.1 mL of 200 μM test compound. These additions were done slowly as to not disrupt the HUVEC monolayer. Each compound was tested in six wells. Unstimulated (vehicle control) and TNF-stimulated without test compound treatments were also run in each plate.
One hour prior to adding the neutrophils (isolated as previously described) to the HUVEC, neutrophils (5×10^6 /mL) were labeled for 30 minutes at 37° C. with 5 μM calcine-AM (Molecular Probes, Eugene, Oreg.) in Hanks' balanced salt solution plus 0.45% BSA. Stock calcein was prepared to 5mM in anhydrous DMSO and stored desiccated at -20° C. At the end of the incubation the cells were washed two times in cold HBSS and resuspended to a final concentration of 1×10^6 cells/mL in unsupplemented EBM.
At the end of the 4-hour stimulation and immediately prior to the addition of the neutrophils to the HUVEC monolayer, the plates were washed with 0.2 ml warm unsupplemented EBM to remove TNF and drug. Neutrophils (1×10^5 cells) were slowly added to each of the treated wells and incubated for 30 minutes at 37° C. At the end of the incubation the plates were washed two times with 0.2 mL warm unsupplemented EBM followed by a final addition of 0.1 mL for plate scanning.
The fluorescence was determined using a Millipore Cytofluor 2300 system (excitation=480, emission=530, sensitivity=4). […]

SMILES | inhibition at 33 µM
CN(C)c1c(C(N)=O)sc2cccc(Cl)c12 [Example 18, 4-Chloro-3-(dimethylamino)benzo[b]thiophene-2-carboxamide] | 10%
COC(=O)CCCCSc1c(C(N)=O)sc2ccc(OC)cc12 [Example 13] | 21%
COc1cccc2sc(C(N)=O)c(N)c12 [Example 19, 3-Amino-4-methoxybenzo[b]thiophene-2-carboxamide] | 30%
COc1ccc2sc(C(=O)Nc3ccc(C(=O)O)cc3)c(SC(C)C)c2c1 [Example 8, 4-[[[5-Methoxy-3[(1-methylethyl)thio]benzo[b]thien-2yl]carbonyl]amino]benzoic acid] | 13%
COc1ccc2sc(C(N)=O)c(SCC(=O)O)c2c1 [Example 15, [[2-(Aminocarbonyl)-5-methoxybenzo[b]thien-3-yl]thio]acetic acid] | 7%
CC(C)Oc1c(C(N)=O)oc2ccc(O)cc12 [Example 38, 5-Hydroxy-3-(1-methylethoxy)-2-benzofurancarboxamide] | 67%
CC(C)Sc1c(C(N)=O)sc2ccc(OCc3ccccc3)cc12 [Example 17, 3-[(1-Methylethyl)thio]-5-(phenylmethoxy)benzo[b]thiophene-2-carboxamide] | 24%
COc1ccc2sc(C(N)=O)c(SCCCCC(=O)O)c2c1 [Example 14] | 37%
COc1ccc2sc(C(N)=O)c(SCCN3CCOCC3)c2c1 [Example 11, 5-Methoxy-3-[[2-(4-morpholinyl)ethyl]thio]benzo[b]thiophene-2-carboxamide] | 27%
CSc1ccc2sc(C(N)=O)c(N(C)C)c2c1 [Example 21, 3-Dimethylamino-5-(methylthio)benzo[b]thiophene-2-carboxamide] | 53%
COc1cccc2sc(C(N)=O)c(N(C)C)c12 [Example 20, 3-(Dimethylamino)-4-methoxybenzo[b]thiophene-2carboxamide] | 63%
CC(C)Sc1c(C(N)=O)sc2cccc(Cl)c12 [Example 12, 4-Chloro-3-[(1-methylethyl)thio]benzo[b]thiophene-2-carboxamide] | 34%
COc1ccc2sc(C(N)=O)c(SCc3ccccc3)c2c1 [Example 6, 5-Methoxy-3-[(phenylmethyl)thio]benzo[b]thiophene-2-carboxamide] | 35%
COC(=O)CCSc1c(C(N)=O)sc2ccc(OC)cc12 [Example 10, Methyl 3-[[2-(aminocarbonyl)-5-methoxybenzo[b]thien-3-yl]thio]propanoate] | 55%
COc1ccc2sc(C(N)=O)c(S(=O)(=O)C(C)C)c2c1 [Example 3, 5-Methoxy-3-[(1-methylethyl)sulfonyl]benzo[b]thiophene-2-carboxamide] | 32%
COC(=O)c1ccc(NC(=O)c2sc3ccc(OC)cc3c2SC(C)C)cc1 [Example 7, Methyl 4-[[[5-methoxy-3-[(1-methylethyl)thio]benzo[b]thien-2yl]carbonyl]amino]benzoate] | 19%
COC(=O)c1ccc(CSc2c(C(N)=O)sc3ccc(OC)cc23)cc1 [Example 16, Methyl 4-[[[2-(aminocarbonyl)-5-methoxybenzo[b]thien-3-yl]thio]methyl]benzoate] | 10%
NC(=O)c1oc2cccc(Cl)c2c1N [Example 26, 3-Amino-4-chloro-2-benzofurancarboxamide] | 24%
NC(=O)c1oc2ccccc2c1N [Example 25, 3-Amino-2-benzofurancarboxamide] | 21%
COc1ccc2sc(C(N)=O)c(S)c2c1 [Example 9, 3-Mercapto-5-methoxybenzo[b]thiophene-2-carboxamide] | 15%

Same assay, conditions: 100 μM, neutrophils labeled with calcein, read-out: Adhesion ECA, % inhibition

SMILES | inhibition at 100 µM
CC(C)Oc1c(C(N)=O)oc2ccccc12 [Example 29, 3-(1-Methylethoxy)-2-benzofurancarboxamide] | 20%
CC(C)Oc1c(C(=O)Nc2ccccc2)oc2ccccc12 [Example 34, 3-(1-Methylethoxy)-N-phenyl-2-benzofurancarboxamide] | 70%
COc1ccc2c(c1)c(NC(C)C)c(C(N)=O)[s+]2[O-] (stereo not shown) [Example 23, 5-Methoxy-3-[(1-methylethyl)amino]benzo[b]thiophene-2-carboxamide-1-oxide] | 7%
CNc1c(C(N)=O)[s+]([O-])c2ccc(OC)cc12 (stereo not shown) [Example 22, 5-Methoxy-3-(methylamino)benzo[b]thiophene-2-carboxamide-1-oxide] | 16%
COc1ccc2oc(C(=O)NCc3ccccc3)c(OC(C)C)c2c1 [Example 30, 5-Methoxy-3-(1-methylethoxy)-N-(phenylmethyl)-2-benzofurancarboxamide] | 42%
CC(C)Oc1c(C(=O)Nc2ccccc2)oc2ccc(Cl)cc12 [Example 31, 5-Chloro-3-(1-methylethoxy)-N-phenyl-2-benzofurancarboxamide] | 11%
CC(C)Oc1c(C(N)=O)oc2ccc(Cl)cc12 [Example 28, 5-Chloro-3-(1-methylethoxy)-2-benzofurancarboxamide] | 52%
CC(C)Oc1c(C(=O)NCc2ccccc2)oc2ccc(Cl)cc12 [Example 32, 5-Chloro-3-(1-methylethoxy)-N-(phenylmethyl)-2-benzofurancarboxamide] | 95%
COc1ccc2c(c1)c(Nc1ccccc1)c(C(N)=O)[s+]2[O-] (stereo not shown) [Example 24, 5-Methoxy-3-(phenylamino)benzo[b]thiophene-2-carboxamide-1-oxide] | 21%
CC(C)Oc1c(C(N)=O)oc2ccc(-c3ccccc3)cc12 [Example 37, 3-(1-Methylethoxy)-5-phenyl-2-benzofurancarboxamide] | 68%
COc1ccc2oc(C(N)=O)c(OCc3ccccc3)c2c1 [Example 36, 5-Methoxy-3-(phenylmethoxy)-2-benzofurancarboxamide] | 4%
CC(C)NC(=O)c1oc2ccccc2c1OC(C)C [Example 33, 3-(1-Methylethoxy)-N-(1-methylethyl)-2-benzofurancarboxamide] | 15%
CC(C)Oc1c(C(=O)NCc2ccccc2)oc2ccccc12 [Example 35, 3-(1-Methylethoxy)-N-(phenylmethyl)-2-benzofurancarboxamide] | 61%

Same assay, conditions: footnote a, neutrophil label not given, IC50 by linear regression from 33.3, 10.0, 3.3 and 1.0 μM, read-out: Adhesion ECA, IC50

SMILES | IC50
COc1ccc2oc(C(N)=O)c(OC(C)C)c2c1 [Example 27, 5-Methoxy-3-(1-methylethoxy)-2-benzofurancarboxamide] | 13 µM
